Test results as given in BigSolDB 2.1.

`O=C(OCC1c2ccccc2-c2ccccc21)ON1C(=O)CCC1=O` gave a solubility (mole fraction) (in DMF, 283.15 K) of 0.00369, a solubility (mole fraction) (in DMF, 288.15 K) of 0.00533 and a solubility (mole fraction) (in DMF, 293.15 K) of 0.00719. It also gave a solubility (mole fraction) (in DMF, 298.15 K) of 0.00964, a solubility (mole fraction) (in DMF, 303.15 K) of 0.0132 and a solubility (mole fraction) (in DMF, 308.15 K) of 0.0177. The solubility (mole fraction) (in DMF, 313.15 K) was 0.023, the solubility (mole fraction) (in DMF, 318.15 K) was 0.0298 and the solubility (mole fraction) (in DMF, 323.15 K) was 0.0387. The solubility (mole fraction) (in DMF, 328.15 K) was 0.0499, the solubility (mole fraction) (in DMSO, 293.15 K) was 0.00499 and the solubility (mole fraction) (in DMSO, 298.15 K) was 0.00641. The solubility (mole fraction) (in DMSO, 303.15 K) was 0.0084, the solubility (mole fraction) (in DMSO, 308.15 K) was 0.0107 and the solubility (mole fraction) (in DMSO, 313.15 K) was 0.0134. It also gave a solubility (mole fraction) (in DMSO, 318.15 K) of 0.0167, a solubility (mole fraction) (in DMSO, 323.15 K) of 0.0208 and a solubility (mole fraction) (in DMSO, 328.15 K) of 0.0257. The solubility (mole fraction) (in ethanol, 283.15 K) was 0.000477, the solubility (mole fraction) (in ethanol, 288.15 K) was 0.000571 and the solubility (mole fraction) (in ethanol, 293.15 K) was 0.000687. For the same compound, the solubility (mole fraction) (in ethanol, 298.15 K) was 0.000824, the solubility (mole fraction) (in ethanol, 303.15 K) was 0.000979 and the solubility (mole fraction) (in ethanol, 308.15 K) was 0.00115. The solubility (mole fraction) (in ethanol, 313.15 K) was 0.00134, the solubility (mole fraction) (in ethanol, 318.15 K) was 0.00155 and the solubility (mole fraction) (in ethanol, 323.15 K) was 0.00177. It also gave a solubility (mole fraction) (in ethanol, 328.15 K) of 0.00205, a solubility (mole fraction) (in ethylene glycol, 283.15 K) of 0.000151 and a solubility (mole fraction) (in ethylene glycol, 288.15 K) of 0.00019. It also gave a solubility (mole fraction) (in ethylene glycol, 293.15 K) of 0.000241, a solubility (mole fraction) (in ethylene glycol, 298.15 K) of 0.000314 and a solubility (mole fraction) (in ethylene glycol, 303.15 K) of 0.000396. It also gave a solubility (mole fraction) (in ethylene glycol, 308.15 K) of 0.00049, a solubility (mole fraction) (in ethylene glycol, 313.15 K) of 0.000611 and a solubility (mole fraction) (in ethylene glycol, 318.15 K) of 0.000748. It also gave a solubility (mole fraction) (in ethylene glycol, 323.15 K) of 0.00092, a solubility (mole fraction) (in ethylene glycol, 328.15 K) of 0.00111 and a solubility (mole fraction) (in water, 293.15 K) of 5.77e-06. The solubility (mole fraction) (in water, 298.15 K) was 7.38e-06, the solubility (mole fraction) (in water, 303.15 K) was 9.44e-06 and the solubility (mole fraction) (in water, 308.15 K) was 1.19e-05. For the same compound, the solubility (mole fraction) (in water, 313.15 K) was 1.49e-05, the solubility (mole fraction) (in water, 318.15 K) was 1.84e-05 and the solubility (mole fraction) (in water, 323.15 K) was 2.28e-05. The solubility (mole fraction) (in water, 328.15 K) was 2.78e-05.
